PMC4624765, “C-di-GMP Regulates Motile to Sessile Transition by Modulating MshA Pili Biogenesis and Near-Surface Motility Behavior in Vibrio cholerae” (PLoS Pathogens, 2015)

Assays:
MshE [1] = target: T1, MshE (Vibrio cholerae, UniProt Q9KUV7); assay: fluorescence thermal shift (SYPRO Orange); assay type: binding; parameters: gene VC_0405; full-length, expressed in E. coli BL21, purified on GST column with glutathione elution; details: 25 mM Tris-HCl pH 7.5, 100 mM NaCl, 0.2 mM MgCl2
VpsT = target: T2, VpsT (Vibrio cholerae, UniProt Q9KKZ8); assay: biochemical
T2 construct: gene VC_A0952

MshE N-terminal domain = target: T3, MshE N-terminal domain (Vibrio cholerae, UniProt Q9KUV7); assay: fluorescence thermal shift (SYPRO Orange); assay type: binding; details: 25 mM Tris-HCl pH 7.5, 100 mM NaCl, 0.2 mM MgCl2
T3 construct: gene VC_0405; N-terminal domain, residues 1-180, expressed in E. coli BL21
T3 sequence (Q9KUV7 1-180 limits assumed): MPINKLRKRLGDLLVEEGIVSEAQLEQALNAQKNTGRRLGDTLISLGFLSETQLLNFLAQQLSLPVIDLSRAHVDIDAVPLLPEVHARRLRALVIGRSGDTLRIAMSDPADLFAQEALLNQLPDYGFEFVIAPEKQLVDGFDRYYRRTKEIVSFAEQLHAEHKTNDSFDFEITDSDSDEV

MshE [2] = target: T1, MshE; assay: biochemical; parameters: gene VC_0405

T1 sequence (Q9KUV7 1-575): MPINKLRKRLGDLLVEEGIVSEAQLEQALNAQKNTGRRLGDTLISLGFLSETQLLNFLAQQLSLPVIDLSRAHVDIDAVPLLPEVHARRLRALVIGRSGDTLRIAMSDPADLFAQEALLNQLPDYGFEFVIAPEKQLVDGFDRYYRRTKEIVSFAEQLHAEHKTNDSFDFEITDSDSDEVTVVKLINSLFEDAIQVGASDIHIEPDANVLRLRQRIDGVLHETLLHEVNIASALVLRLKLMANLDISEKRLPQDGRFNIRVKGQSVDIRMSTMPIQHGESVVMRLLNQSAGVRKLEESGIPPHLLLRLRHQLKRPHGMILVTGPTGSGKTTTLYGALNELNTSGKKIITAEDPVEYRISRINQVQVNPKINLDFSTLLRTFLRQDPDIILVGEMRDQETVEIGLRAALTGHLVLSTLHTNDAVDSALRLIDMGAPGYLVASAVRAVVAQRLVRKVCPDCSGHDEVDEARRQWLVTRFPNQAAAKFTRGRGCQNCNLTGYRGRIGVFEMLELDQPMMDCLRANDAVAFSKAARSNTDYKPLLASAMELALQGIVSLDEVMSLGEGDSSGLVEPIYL

Structure (SMILES) | Tm with 2 mM ligand (MshE [1]) [°C] | Kd (VpsT) [µM] | Tm with 2 mM ligand (MshE N-terminal domain) [°C] | Kd (MshE [2]) [µM]
Nc1nc2c(ncn2[C@@H]2O[C@@H]3COP(=O)(O)O[C@H]4[C@@H](O)[C@H](n5cnc6c(=O)[nH]c(N)nc65)O[C@@H]4COP(=O)(O)O[C@H]3[C@H]2O)c(=O)[nH]1 [c-di-GMP] | 42.77±0.70 | 10.1 | 70.18 ±0.55 | 8.77
Nc1ncnc2c1ncn2[C@@H]1O[C@H](COP(=O)(O)OP(=O)(O)OP(=O)(O)O)[C@@H](O)[C@H]1O [ATP] | 40.15 ±1.02 | – | – | –
